Key:
[1] = target: GSK3β (Glycogen synthase kinase-3 beta) (Homo sapiens, UniProt P49841); test: Assay 6 - GSK3β assay (ThermoFisher Z-Lyte); type: biochemical; details: geometric mean; ATP Conc: 10 μM; read-out: Assay 6 (GSK3β FRET-Z-Lyte CR) GMean IC50 (μM) ATP Conc: 10
Method: Assay 6—GSK3β Assay (ThermoFisher Assay)
This assay measures the activity of the compounds at GSK3β (Glycogen synthase kinase-3 beta).
The test compounds were screened in 1% DMSO (final) in the well. For 10 point titrations, 3-fold serial dilutions are conducted from the starting concentration of 10 μM.
Bar-coded Corning, low volume NBS, black 384-well plate • 1. 2.5 μL—4× Test Compound or 100 nL 100× plus 2.4 μL kinase buffer • 2. 5 μL—2× Peptide/Kinase Mixture • 3. 2.5 μL—4×ATP Solution • 4. 30-second plate shake • 5. 60-minute Kinase Reaction incubation at room temperature • 6. 5 μL—Development Reagent Solution • 7. 30-second plate shake • 8. 60-minute Development Reaction incubation at room temperature • 9. Read on fluorescence plate reader and analyse the data
In step 2, the 2×GSK3β (GSK3 beta)/Ser/Thr (Glycogen synthase kinase-3 beta/Serine/Threonine) 09 mixture is prepared in 50 mM HEPES (4-(2-hydroxyethyl)-1-piperazineethanesulfonic acid) pH 7.5, 0.01% BRIJ-35, 10 mM MgCl2, 1 mM EGTA (egtazic acid). The final 10 μL Kinase Reaction consists of 0.22-0.92 ng GSK3β (GSK3 beta) and 2 μM Ser/Thr 09 in 50 mM HEPES pH 7.5, 0.01% BRIJ-35, 10 mM MgCl2, 1 mM EGTA.
In step 3 the ATP Solution is diluted to a 4× working concentration in Kinase Buffer (50 mM HEPES pH 7.5, 0.01% BRIJ-35, 10 mM MgCl2, 1 mM EGTA).
In Step 6 the Development Reagent is diluted 1:512 in Development Buffer (10× Novel PKC Lipid Mix: 2 mg/mL Phosphatidyl Serine, 0.2 mg/mL DAG in 20 mM HEPES, pH 7.4, 0.3% CHAPS).
SelectScreen® Kinase Profiling Service uses XLfit from IDBS. The dose response curve is curve fit to model number 205 (sigmoidal dose-response model).

[2] = target: T1, potassium ion channel hERG (human Ether-á-go-go-Related Gene) (Homo sapiens, UniProt Q12809); test: Assay 5 - hERG assay (SyncroPatch 384PE patch clamp, CHO cells); type: cell-based; details: geometric mean; CHO cells over-expressing hERG; read-out: Assay 5 (hERG Hu CHO IF EPh CR-Syncro) GMean IC50
T1 construct: expressed in transfected cells; host or cells: Chinese hamster ovary K1 (CHO)
Method: Assay 5—hERG Assay (Human Ether-á-go-go-Related Gene)
This assay (human Ether-á-go-go-Related Gene) measures activity of the compounds at the potassium ion channel hERG (human Ether-á-go-go-Related Gene).
Experiments were performed on the SyncroPatch 384PE high throughput patch clamp platform at room temperature and medium resistance chips with 4 patch holes per site. Chinese hamster ovary K1 (CHO) cell lines over-expressing the ion channel of choice (hERG) were used in assay-ready format and kept in liquid nitrogen or were used from live culture. Cells were either thawed and diluted in HBSS or were detached from flasks and resuspended in HBSS. HBSS comprised 140 mM NaCl, 4 mM KCl, 10 mM HEPES and 5 mM Glucose (pH7.4). The internal patch clamp solution was KF 120 mM, KCl 20 mM, HEPES 10 mM, EGTA 10 mM, and 25 PM Escin (pH 7.2). After the sealing process was complete, the external solution was exchanged for external patch clamp solution comprising NaCl 80 mM, KCl 4 mM, HEPES 10 mM, CaCl2 2 mM, MgCl2 1 mM, glucose 5 mM, and NMDG 60 mM (pH 7.4). All solutions were stored at room temperature, except Escin, which was stored at 4° C. All test compounds were dispensed in greiner-bio 384 well plates and tested in a 6 point cumulative assay (final DMSO concentration 0.33%). Only wells that passed previously agreed acceptance criteria for this platform were used in this analysis (30 MegaOhm seal resistance, Z prime >0.4 and current size >0.2 nA).

[3] = target: PCSK9 (Homo sapiens, UniProt Q8NBP7, G670E/V474I); test: biochemical
Chain of PCSK9 (Q8NBP7 with tags, fused parts or gaps V474I/G670E): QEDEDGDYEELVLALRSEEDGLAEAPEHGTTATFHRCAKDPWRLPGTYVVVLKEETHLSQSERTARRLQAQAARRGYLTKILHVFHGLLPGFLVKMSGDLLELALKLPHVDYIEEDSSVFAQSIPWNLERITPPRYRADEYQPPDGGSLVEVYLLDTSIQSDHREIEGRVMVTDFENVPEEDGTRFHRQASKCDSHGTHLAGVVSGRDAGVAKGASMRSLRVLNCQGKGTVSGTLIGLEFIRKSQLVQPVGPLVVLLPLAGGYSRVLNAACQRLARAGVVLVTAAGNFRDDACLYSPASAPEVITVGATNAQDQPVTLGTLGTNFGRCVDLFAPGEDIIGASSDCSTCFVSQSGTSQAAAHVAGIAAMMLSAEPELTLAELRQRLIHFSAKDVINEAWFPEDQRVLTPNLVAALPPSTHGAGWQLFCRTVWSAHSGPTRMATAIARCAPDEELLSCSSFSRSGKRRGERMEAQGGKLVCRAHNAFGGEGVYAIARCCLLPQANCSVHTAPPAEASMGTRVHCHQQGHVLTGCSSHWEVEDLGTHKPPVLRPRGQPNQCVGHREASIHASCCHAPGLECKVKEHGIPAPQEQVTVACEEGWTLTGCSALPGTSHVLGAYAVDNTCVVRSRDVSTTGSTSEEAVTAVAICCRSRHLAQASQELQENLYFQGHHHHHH

T1 sequence (Q12809 whole entry): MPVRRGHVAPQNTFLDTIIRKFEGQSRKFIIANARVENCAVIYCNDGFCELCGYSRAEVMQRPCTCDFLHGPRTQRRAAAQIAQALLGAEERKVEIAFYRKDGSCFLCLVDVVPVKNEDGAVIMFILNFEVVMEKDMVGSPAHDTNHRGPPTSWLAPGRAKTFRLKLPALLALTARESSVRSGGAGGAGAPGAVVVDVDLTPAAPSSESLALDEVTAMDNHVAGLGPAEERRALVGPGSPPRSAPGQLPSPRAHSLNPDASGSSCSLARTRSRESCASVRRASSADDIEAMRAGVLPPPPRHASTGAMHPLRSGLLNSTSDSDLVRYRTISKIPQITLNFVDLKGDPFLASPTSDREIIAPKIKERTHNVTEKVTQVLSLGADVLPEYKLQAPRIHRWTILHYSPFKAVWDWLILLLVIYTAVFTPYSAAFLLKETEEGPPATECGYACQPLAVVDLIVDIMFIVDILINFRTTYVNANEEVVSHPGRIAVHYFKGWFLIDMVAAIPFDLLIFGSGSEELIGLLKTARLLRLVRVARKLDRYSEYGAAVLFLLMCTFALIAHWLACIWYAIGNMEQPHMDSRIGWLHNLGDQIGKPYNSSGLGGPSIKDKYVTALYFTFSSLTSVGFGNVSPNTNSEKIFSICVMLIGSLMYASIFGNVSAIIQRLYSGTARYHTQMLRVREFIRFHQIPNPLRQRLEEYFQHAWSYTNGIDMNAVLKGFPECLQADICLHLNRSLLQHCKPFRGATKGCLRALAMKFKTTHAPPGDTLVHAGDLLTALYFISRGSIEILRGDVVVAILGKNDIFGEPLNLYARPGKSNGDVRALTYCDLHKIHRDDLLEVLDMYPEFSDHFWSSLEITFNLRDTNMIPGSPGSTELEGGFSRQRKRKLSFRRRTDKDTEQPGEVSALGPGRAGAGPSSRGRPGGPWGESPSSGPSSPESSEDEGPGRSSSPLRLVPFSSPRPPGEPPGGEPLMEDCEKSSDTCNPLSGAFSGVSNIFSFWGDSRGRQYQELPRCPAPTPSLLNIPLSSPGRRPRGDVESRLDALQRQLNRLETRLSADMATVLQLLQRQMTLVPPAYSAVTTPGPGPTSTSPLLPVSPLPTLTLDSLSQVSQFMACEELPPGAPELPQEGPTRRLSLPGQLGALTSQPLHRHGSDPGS
Chain of GSK3β (Glycogen synthase kinase-3 beta) (P49841 whole entry): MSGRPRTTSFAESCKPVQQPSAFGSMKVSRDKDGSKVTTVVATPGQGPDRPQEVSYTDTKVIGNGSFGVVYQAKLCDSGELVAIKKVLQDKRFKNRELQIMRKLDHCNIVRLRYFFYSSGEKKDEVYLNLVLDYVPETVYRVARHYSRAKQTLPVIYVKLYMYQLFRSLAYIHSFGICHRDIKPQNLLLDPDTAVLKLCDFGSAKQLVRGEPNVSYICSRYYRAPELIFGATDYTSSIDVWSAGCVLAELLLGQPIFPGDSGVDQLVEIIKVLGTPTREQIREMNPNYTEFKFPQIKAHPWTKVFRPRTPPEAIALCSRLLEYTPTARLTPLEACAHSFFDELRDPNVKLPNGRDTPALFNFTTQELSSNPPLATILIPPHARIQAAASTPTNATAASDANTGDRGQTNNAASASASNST

**Q.** Which results are given for `Cc1ncc(N[C@H]2CC[C@H](Nc3ccc(-n4cc(C#N)ccc4=O)cn3)C2)nc1C` [Example 48, 6′-(((1S,3S)-3-((5,6-Dimethylpyrazin-2-yl)amino)cyclopentyl)amino)-2-oxo-2H-[1,3′-bipyridine]-5-carbonitrile]?
**A.** IC50 [1]: > 10 µM; IC50 [2]: 18.4 µM; IC50 [3]: 0.113 µM

**Q.** `O=c1ccc(Cl)cn1-c1ccc(N[C@H]2CC[C@H](Nc3cnc(OC(F)F)cn3)C2)nc1` [Example 83, 5-Chloro-6′-(((1S,3S)-3-((5-(difluoromethoxy)pyrazin-2-yl)amino)cyclopentyl)amino)-2H-[1,3′-bipyridin]-2-one] was tested. Which IC50 [1] did it give?
**A.** The IC50 was greater than 10 µM.

**Q.** What about the IC50 [2] of the same compound?
**A.** The IC50 was 5 µM.

**Q.** And the IC50 [3]?
**A.** The IC50 was 0.044 µM.

**Q.** With `CN1C(=O)CN(c2ccc(N[C@H]3CC[C@H](Nc4cnc(Cl)cn4)C3)nc2)C1=O` [Example 26, 1-(6-(((1S,3S)-3-((5-Chloropyrazin-2-yl)amino)cyclopentyl)amino)pyridin-3-yl)-3-methylimidazolidine-2,4-dione] as the compound, how does the IC50 [1] read?
**A.** The IC50 was greater than 10 µM.

**Q.** And the IC50 [2]?
**A.** The IC50 was 14.3 µM.

**Q.** What about the IC50 [3] of the same compound?
**A.** The IC50 was 0.0243 µM.

**Q.** Which results are given for `COc1cccn(-c2ccc(N[C@H]3CC[C@H](Nc4cnc(C)cn4)C3)nc2)c1=O` (single isomer, unassigned) [Example 171]?
**A.** IC50 [1]: 2.1 µM; IC50 [2]: > 40.1 µM; IC50 [3]: 0.602 µM

**Q.** With `N#Cc1ccc(=O)n(-c2ccc(N[C@H]3CC[C@H](Nc4cnc(OC(F)F)cn4)C3)nc2)c1` [Example 89, 6′-(((1S,3S)-3-((5-(Difluoromethoxy)pyrazin-2-yl)amino)cyclopentyl)amino)-2-oxo-2H-[1,3′-bipyridine]-5-carbonitrile] as the compound, how does the IC50 [1] read?
**A.** The IC50 was greater than 10 µM.

**Q.** And the IC50 [2]?
**A.** Its IC50 is 6.8 µM.

**Q.** What about the IC50 [3] of the same compound?
**A.** Its IC50 is 0.121 µM.

**Q.** What does the source list for `N#Cc1cccn(-c2ccc(N[C@H]3CC[C@H](Nc4cnc(OC(F)F)cn4)C3)nc2)c1=O` [Example 90, 6′-(((1S,3S)-3-((5-(Difluoromethoxy)pyrazin-2-yl)amino)cyclopentyl)amino)-2-oxo-2H-[1,3′-bipyridine]-3-carbonitrile]?
**A.** IC50 [1]: > 10 µM; IC50 [2]: 11.7 µM; IC50 [3]: 0.015 µM

**Q.** With `COc1ccc(=O)n(-c2ccc(N[C@H]3CC[C@H](Nc4cnc(C5CC5)cn4)C3)nc2)c1` [Example 107, 6′-(((1S,3S)-3-((5-Cyclopropylpyrazin-2-yl)amino)cyclopentyl)amino)-5-methoxy-2H-[1,3′-bipyridin]-2-one] as the compound, how does the IC50 [1] read?
**A.** The IC50 was 0.16 µM.

**Q.** And the IC50 [3]?
**A.** The IC50 was 0.105 µM.

**Q.** `Cc1ncc(N[C@H]2CC[C@H](Nc3ccc(N4CC(=O)N(C)C4=O)cn3)C2)nc1C` [Example 16, 1-(6-(((1S,3S)-3-((5,6-Dimethylpyrazin-2-yl)amino)cyclopentyl)amino)pyridin-3-yl)-3-methylimidazolidine-2,4-dione] was tested. Which IC50 [1] did it give?
**A.** The IC50 was greater than 10 µM.

**Q.** What about the IC50 [2] of the same compound?
**A.** Its IC50 is greater than 40 µM.

**Q.** And the IC50 [3]?
**A.** The IC50 was 0.103 µM.

**Q.** What does the source list for `N#Cc1ccc(=O)n(-c2ccc(N[C@H]3CC[C@H](Nc4cnc(C5CC5)cn4)C3)nc2)c1` [Example 110, 6′-(((1S,3S)-3-((5-Cyclopropylpyrazin-2-yl)amino)cyclopentyl)amino)-2-oxo-2H-[1,3′-bipyridine]-5-carbonitrile]?
**A.** IC50 [1]: > 10 µM; IC50 [2]: 25.3 µM; IC50 [3]: 0.048 µM

**Q.** Which results are given for `O=c1[nH]ccnc1N[C@H]1CC[C@H](Nc2ccc(-n3ccccc3=O)cn2)C1` [Example 252, 6′-(((1S,3S)-3-((3-Oxo-3,4-dihydropyrazin-2-yl)amino)cyclopentyl)amino)-2H-[1,3′-bipyridin]-2-one]?
**A.** IC50 [1]: > 10 µM; IC50 [2]: > 40.1 µM; IC50 [3]: 2.58 µM

**Q.** How did the IC50 [1] turn out when `Cc1ncc(N[C@H]2CC[C@H](Nc3ccc(-n4cc(Cl)ccc4=O)cn3)C2)nc1C` [Example 17, 5-Chloro-6′-(((1S,3S)-3-((5,6-dimethylpyrazin-2-yl)amino)cyclopentyl)amino)-2H-[1,3′-bipyridin]-2-one] was run?
**A.** The IC50 was greater than 10 µM.

**Q.** And the IC50 [2]?
**A.** Its IC50 is greater than 40 µM.

**Q.** What about the IC50 [3] of the same compound?
**A.** The IC50 was 0.053 µM.

**Q.** How did the IC50 [1] turn out when `Cc1cnc(N[C@H]2CC[C@H](Nc3ccc(-n4cc(C#N)ccc4=O)cn3)C2)cn1` [Example 49, 6′-(((1S,3S)-3-((5-Methylpyrazin-2-yl)amino)cyclopentyl)amino)-2-oxo-2H-[1,3′-bipyridine]-5-carbonitrile] was run?
**A.** Its IC50 is greater than 10 µM.

**Q.** What about the IC50 [2] of the same compound?
**A.** Its IC50 is greater than 40 µM.

**Q.** And the IC50 [3]?
**A.** The IC50 was 0.058 µM.

**Q.** What does the source list for `CSc1cnc(N[C@H]2CC[C@H](Nc3ccc(-n4ccccc4=O)cn3)C2)cn1` [Example 162, 6′-(((1S,3S)-3-((5-(Methylthio)pyrazin-2-yl)amino)cyclopentyl)amino)-2H-[1,3′-bipyridin]-2-one]?
**A.** IC50 [1]: > 10 µM; IC50 [2]: > 40.1 µM; IC50 [3]: 0.042 µM

**Q.** Which results are given for `Cc1cnc(N[C@H]2CC[C@H](Nc3ccc(-n4nccc(OC(F)F)c4=O)cn3)C2)cn1` [Example 282, 4-(Difluoromethoxy)-2-(6-(((1S,3S)-3-((5-methylpyrazin-2-yl)amino)cyclopentyl)amino)pyridin-3-yl)pyridazin-3 (2H)-one]?
**A.** IC50 [1]: > 10 µM; IC50 [2]: > 40.1 µM; IC50 [3]: 0.01 µM

**Q.** `O=c1ccc(Cl)cn1-c1ccc(N[C@H]2CC[C@H](Nc3cnc(Cl)cn3)C2)nc1` [Example 29, 5-Chloro-6′-(((1S,3S)-3-((5-chloropyrazin-2-yl)amino)cyclopentyl)amino)-2H-[1,3′-bipyridin]-2-one] was tested. Which IC50 [1] did it give?
**A.** The IC50 was greater than 10 µM.

**Q.** And the IC50 [2]?
**A.** The IC50 was 11.1 µM.

**Q.** What about the IC50 [3] of the same compound?
**A.** The IC50 was 0.014 µM.

**Q.** Which results are given for `Cc1cnc(N[C@H]2CC[C@H](Nc3ccc(N4C(=O)CCc5ccccc54)cn3)C2)cn1` [Example 274, 1-(6-(((1S,3S)-3-((5-Methylpyrazin-2-yl)amino)cyclopentyl)amino)pyridin-3-yl)-3,4-dihydroquinolin-2 (1H)-one]?
**A.** IC50 [1]: > 10 µM; IC50 [2]: 17.1 µM; IC50 [3]: 0.0081 µM

**Q.** For `CN1CC(=O)N(c2ccc(N[C@H]3CC[C@H](Nc4cnc(OC(F)F)cn4)C3)nc2)C1=O` [Example 93, 3-(6-(((1S,3S)-3-((5-(Difluoromethoxy)pyrazin-2-yl)amino)cyclopentyl)amino)pyridin-3-yl)-1-methylimidazolidine-2,4-dione], which IC50 [1] is on record?
**A.** The IC50 was greater than 10 µM.

**Q.** What about the IC50 [2] of the same compound?
**A.** The IC50 was greater than 40 µM.

**Q.** What about the IC50 [3] of the same compound?
**A.** The IC50 was 0.087 µM.

**Q.** What does the source list for `Cc1cnc(N[C@H]2CC[C@H](Nc3ccc(-n4nccc(C)c4=O)cn3)C2)cn1` [Example 227, 4-Methyl-2-(6-(((1S,3S)-3-((5-methylpyrazin-2-yl)amino)cyclopentyl)amino)pyridin-3-yl)pyridazin-3 (2H)-one]?
**A.** IC50 [1]: > 10 µM; IC50 [2]: > 40.1 µM; IC50 [3]: 0.012 µM

**Q.** Which IC50 [1] does the source give for `Cn1ncc2ncc(N[C@H]3CC[C@H](Nc4ccc(-n5ccccc5=O)cn4)C3)nc21` [Example 9, 6′-(((1S,3S)-3-((1-Methyl-1H-pyrazolo[3,4-b]pyrazin-6-yl)amino)cyclopentyl)amino)-2H-[1,3′-bipyridin]-2-one] here?
**A.** The IC50 was 5.6 µM.

**Q.** What about the IC50 [2] of the same compound?
**A.** Its IC50 is greater than 40 µM.

**Q.** And the IC50 [3]?
**A.** The IC50 was 0.677 µM.

**Q.** What does the source list for `O=C1[C@@H]2OCC[C@@H]2CCN1c1ccc(N[C@H]2CC[C@H](Nc3cnc(OC(F)F)cn3)C2)nc1` [Example 78, (3aS,7aR)-6-(6-(((1S,3S)-3-((5-(Difluoromethoxy)pyrazin-2-yl)amino)cyclopentyl)amino)pyridin-3-yl)hexahydrofuro[2,3-c]pyridin-7(4H)-one]?
**A.** IC50 [1]: > 10 µM; IC50 [2]: > 40 µM; IC50 [3]: 1.63 µM

**Q.** For `Cc1cnc(N[C@H]2CC[C@H](Nc3ccc(-n4cccc(-c5cnn(C)c5)c4=O)cn3)C2)cn1` [Example 203, 3-(1-Methyl-1H-pyrazol-4-yl)-6′-(((1S,3S)-3-((5-methylpyrazin-2-yl)amino)cyclopentyl)amino)-2H-[1,3′-bipyridin]-2-one], which IC50 [1] is on record?
**A.** The IC50 was greater than 10 µM.

**Q.** What about the IC50 [2] of the same compound?
**A.** Its IC50 is greater than 40.1 µM.

Source: patent publication US20240217951A1, “PCSK9 INHIBITORS AND METHODS OF USE THEREOF” (AstraZeneca AB, priority 2022, published 2024)
